From patent publication US20240408169A1 (priority 2023, published 2024)
Where two headings read alike, the source gives them in different places. *1 amine or outer side, *2 acyl side, *3 side chain or, on linkers, in order; H or OH if unused. Where a SMILES comes first, the peptide text is derived from it. Bridges are numbered along the chain shown (N, C = ends). [ ]: non-standard residue; d: D form. The star is where a group is joined. X202 = CN([C@@H](Cc1cc(Cl)ccc1-c1ccc(N2CCN(CC(F)F)CC2)cc1)C(=O)[*:2])[*:1]; X128 = CC(C)C(=O)N1C2C=C(c3ccc(F)cc3C[C@@H](C(=O)[*:2])N(C)[*:1])CC1COC2; X148 = CN([C@@H](Cc1cc(Cl)ccc1-c1ccc(S(C)(=O)=O)nc1)C(=O)[*:2])[*:1]; NMePhe(5-Cl,2-O(2-Pym)) = CN[C@@H](Cc1cc(Cl)ccc1Oc1ncccn1)C(=O)O; X196 = CN([C@@H](Cc1cc(F)ccc1-c1cnn2ccncc12)C(=O)[*:2])[*:1]; NMehhhLys(Me) = CN([C@@H](CCCCCCCN(C)[*:3])C(=O)[*:2])[*:1]; NMe3Pal(2-OcPr,5-F) = CN[C@@H](Cc1cc(F)cnc1OC1CC1)C(=O)O; NMe(hhhLys) = CN([C@@H](CCCCCCCN[*:3])C(=O)[*:2])[*:1]; Cyclobutanecarbonyl(1-CF3) = O=C(C1(C(F)(F)F)CCC1)*; cBuCO(3,3-F2-1-CF3) = O=C(C1(C(F)(F)F)CC(F)(F)C1)*; Pro(trans-4-F) = O=C(O)[C@@H]1C[C@@H](F)CN1; Gly(cPr) = N[C@H](C(=O)O)C1CC1

How the values were obtained:
[1] = target: T1, CyclinA2/CDK2 (Homo sapiens, UniProt P20248); assay: Fluorescence Polarization (FP) competitive binding assay, Cyclin A2/Cdk2;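 further: plates equilibrated two hours at room temperature before polarization reading, IC50 fitted from eight-concentration compound titration curves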
T1 construct: purchased CRELUX Protein Services

[2] = target: T2, CyclinB1/CDK1 (Homo sapiens, UniProt P14635); assay: Fluorescence Polarization (FP) competitive binding assay, Cyclin B1/Cdk1;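 further: fluorescence polarization read after equilibration at room temperature, with IC50 taken from serially diluted dose-response curves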
T2 construct: purchased Eurofins, discovery 14-450

[3] = target: T3, CyclinE1/CDK2 (Homo sapiens, UniProt P24864); assay: Fluorescence Polarization (FP) competitive binding assay, Cyclin E1/Cdk2;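 further: readings taken after two-hour equilibration at room temperature in HEPES buffer with NaCl, DTT, NP-40 and BSA, IC50 fitted from eight-concentration serial dilution series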
T3 construct: purchased Eurofins, discovery 14-475

[4] = test system: NCI-H1048 cells; assay: MTT proliferation assay, NCI-H1048; type: cell-based; details: 5 days compound exposure, 1:3 serial dilution starting at 10 μM;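 further: Dose-response in 96-well plates over 8 or 10 concentration points, with exposure spanning 3-4 cell doublings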
[5] = test system: OVCAR3 cells; assay: MTT proliferation assay, OVCAR3; type: cell-based; details: 5 days compound exposure, 1:3 serial dilution starting at 10 μM;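 further: compound given as an 8- or 10-point series, one day after plating, with exposure covering roughly 3-4 cell doublings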
[6] = 8 nM Cyclin A2/Cdk2, 2 nM FAM probe, average of 2-3 independent experiments, read-out: Cyclin A FP IC50
[7] = 10 nM Cyclin B1/Cdk1, 2 nM FAM probe; average of 2-3 independent experiments; read-out: Cyclin B FP IC50
[8] = 10 nM Cyclin E1/Cdk2, 2 nM FAM probe, average of 2-3 independent experiments, read-out: Cyclin E FP IC50

Row | Compound | IC50 [1, 6] [nM] | IC50 [2, 7] [nM] | IC50 [3, 8] [nM] | GI50 [4] [nM] | GI50 [5] [nM] | IC50 [1] [nM] | IC50 ([2]; read-out: Cyclin B FP IC50; 10 nM Cyclin B1/Cdk1, 2 nM FAM probe; average of 2-3 independent experiments) [nM] | IC50 [3] [nM]
1 | CC(C)C[C@@H]1NC(=O)[C@@H](N(C)C(=O)[C@@H](NC(=O)[C@@H]2C[C@@H](F)CN2C(=O)C2(C(F)(F)F)CC(F)(F)C2)C2CC2)CCCCCCCN(C)C(=O)[C@H](Cc2cc(Cl)ccc2-c2ccc(N3CCN(CC(F)F)CC3)cc2)N(C)C1=O [Example 352] ({cBuCO(3,3-F2-1-CF3)}-[Pro(trans-4-F)][Gly(cPr)][NMehhhLys(Me)]L[X202]; lactam 3-C) | 20 | 20 | 510 | 10 | 10 | – | – | –
2 | CC(C)C[C@@H]1NC(=O)[C@@H](N(C)C(=O)[C@@H](NC(=O)[C@@H]2C[C@@H](F)CN2C(=O)C2(C(F)(F)F)CC(F)(F)C2)C2CC2)CCCCCCCN(C)C(=O)[C@H](Cc2cc(F)ccc2C2=CC3COCC(C2)N3C(=O)C(C)C)N(C)C1=O (stereo partly drawn) [Example 151] ({cBuCO(3,3-F2-1-CF3)}-[Pro(trans-4-F)][Gly(cPr)][NMehhhLys(Me)]L[X128]; lactam 3-C) | 20 | 20 | 220 | 10 | 10 | – | – | –
3 | CC(C)C[C@@H]1NC(=O)[C@@H](N(C)C(=O)[C@@H](NC(=O)[C@@H]2C[C@@H](F)CN2C(=O)C2(C(F)(F)F)CC(F)(F)C2)C2CC2)CC=CCCCCN(C)C(=O)[C@H](Cc2cc(Cl)cnc2OC2CC2)N(C)C1=O [Example 104] | 160 | 20 | 490 | 160 | 260 | – | – | –
4 | CC(C)C[C@@H]1NC(=O)[C@@H](N(C)C(=O)[C@@H](NC(=O)[C@@H]2C[C@@H](F)CN2C(=O)C2(C(F)(F)F)CCC2)C2CC2)CCCCCCCN(C)C(=O)[C@H](Cc2cc(F)cnc2OC2CC2)N(C)C1=O [Example 135] ({Cyclobutanecarbonyl(1-CF3)}-[Pro(trans-4-F)][Gly(cPr)][NMehhhLys(Me)]L[NMe3Pal(2-OcPr,5-F)]; lactam 3-C) | 80 | 20 | 120 | 30 | 20 | – | – | –
5 | CC(C)C[C@@H]1NC(=O)[C@@H](N(C)C(=O)[C@@H](NC(=O)[C@@H]2C[C@@H](F)CN2C(=O)C2(C(F)(F)F)CCC2)C2CC2)CC=CCCCCNC(=O)[C@H](Cc2cc(F)cnc2OC2CC2)N(C)C1=O [Example 132] | 710 | 20 | 450 | 570 | 380 | – | – | –
6 | CC(C)C[C@@H]1NC(=O)[C@@H](N(C)C(=O)[C@@H](NC(=O)[C@@H]2C[C@@H](F)CN2C(=O)C2(C(F)(F)F)CC(F)(F)C2)C2CC2)CC=CCCCCN(C)C(=O)[C@H](Cc2cc(F)ccc2-c2cnn(C)c2)N(C)C1=O [Example 37] | 50 | 20 | 370 | 40 | 50 | – | – | –
7 | CC(C)C[C@@H]1NC(=O)[C@@H](N(C)C(=O)[C@@H](NC(=O)[C@@H]2C[C@@H](F)CN2C(=O)C2(C(F)(F)F)CC(F)(F)C2)C2CC2)CCCCCCCNC(=O)[C@H](Cc2cc(Cl)ccc2Oc2ncccn2)N(C)C1=O [Example 154] ({cBuCO(3,3-F2-1-CF3)}-[Pro(trans-4-F)][Gly(cPr)][NMe(hhhLys)]L[NMePhe(5-Cl,2-O(2-Pym))]; lactam 3-C) | 150 | 20 | 480 | 20 | 20 | – | – | –
8 | CC(C)C[C@@H]1NC(=O)[C@@H](N(C)C(=O)[C@@H](NC(=O)[C@@H]2C[C@@H](F)CN2C(=O)C2(C(F)(F)F)CCC2)C2CC2)CC=CCCCCN(C)C(=O)[C@H](Cc2cc(F)ccc2-c2cncnc2)N(C)C1=O [Example 41] | 160 | 20 | 810 | 100 | 130 | – | – | –
9 | CC(C)C[C@@H]1NC(=O)[C@@H](N(C)C(=O)[C@@H](NC(=O)[C@@H]2C[C@@H](F)CN2C(=O)C2(C(F)(F)F)CC(F)(F)C2)C2CC2)CCCCCCCN(C)C(=O)[C@H](Cc2cc(F)ccc2-c2cnn3ccncc23)N(C)C1=O [Example 310] ({cBuCO(3,3-F2-1-CF3)}-[Pro(trans-4-F)][Gly(cPr)][NMehhhLys(Me)]L[X196]; lactam 3-C) | 80 | 20 | 990 | 10 | 10 | – | – | –
10 | CC(C)C[C@@H]1NC(=O)[C@@H](N(C)C(=O)[C@@H](NC(=O)[C@@H]2C[C@@H](F)CN2C(=O)C2(C(F)(F)F)CC(F)(F)C2)C2CC2)CCCCCCCN(C)C(=O)[C@H](Cc2cc(Cl)ccc2-c2ccc(S(C)(=O)=O)nc2)N(C)C1=O [Example 201] ({cBuCO(3,3-F2-1-CF3)}-[Pro(trans-4-F)][Gly(cPr)][NMehhhLys(Me)]L[X148]; lactam 3-C) | – | – | – | 60 | 60 | 30 | 20 | 1950
